From US6939550B2, “Stabilized antihistamine syrup” (Schering Corporation, priority 1998, dated 2005) come the findings set out here.

Data set [1] in a line: Accelerated storage stability of syrups in sealed vials at 55° C., analysis by HPLC. The data set is classed as physicochemical. The note with it: severe storage conditions of the test (55° C.).
Description: This level can be readily determined by means of an accelerated storage stability test, in which packages of the final product are stored at elevated temperatures above the usual storage temperatures to which the product is expected to be exposed; the present inventors have used temperatures up to 55° C. for this purpose, although such temperatures tend to cause a minor discoloration (darkening) of the syrups, probably due to some carmelization of the contained sucrose. It is expected that most drug degradation reactions will be accelerated by the elevated temperature. At predetermined intervals, some of the packages are opened and analyzed to determine the amount of active ingredients and impurities present in the formulation.
Twenty five mL portions of the two syrups are placed into 50 mL flint glass vials, then sealed with rubber stoppers and aluminum caps. The sealed vials are stored at 55° C. until their removal and analysis by high performance liquid chromatography.
Sample A from the preceding example and similarly prepared syrups which also contain 0.1, 0.25, 0.5 or 0.75 mg/mL of disodium EDTA are packaged as in the prior example, and stored and tested similarly.
The nature of data set [2]: Test of common antioxidant additives incorporated into the syrup. On the procedure:
Another test was conducted, wherein common antioxidant additives were incorporated into the syrup. Ideally, the antioxidant will be soluble in the syrup and is safe for use in foods and pharmaceutical preparations.

Read-outs that look alike come from different tables or passages of the source.

On to `O=C(O)CN(CCN(CC(=O)O)CC(=O)O)CC(=O)O` [EDTA, ethylenediaminetetraacetic acid], for which the “inhibition of the degradation of loratadine” value in data set [1] is given as “significant inhibition”.

In the case of `O=C1O[C@H]([C@@H](O)CO)C(O)=C1O` [ascorbic acid], in data set [2] (additive at 0.1 and 1 mg/mL in the syrup), the “color change in the product” value was “unacceptable strong color change”.

`Cc1cc(C(C)(C)C)c(O)c(C(C)(C)C)c1` [butylated hydroxytoluene]: the “solubility in the syrup” value in data set [2] is “not soluble”. As for `O=S([O-])O.[Na+]` [sodium bisulfite], the “odor imparted to the syrup” value in data set [2] (additive in the syrup) is on record as “pungent, disagreeable odor”. tocopherol: in data set [2] (oil-soluble antioxidants), the “solubility in the syrup” value is reported as “not soluble”.
